Data reported in patent publication US5795876A, “Method of inhibiting vascular cell adhesion molecule-1 and treating chronic inflammatory diseases with 2, 6-di-alkyl-4-silyl-phenols” (Hoechst Marion Rousssel, Inc., priority 1997, dated 1998).
Read-outs that look alike come from different tables or passages of the source.

Key:
ICAM-1 [1] = experiment: Cell surface ELISA for ICAM-1 in human umbilical vein endothelial cells (HUVEC), cytokine-induced (tumor necrosis factor-alpha); format: cell-based; conditions: for inhibition at 50 µM: Homo sapiens, HUVEC, read-out: ICAM-1 (% inh. 50 μM)
Description: (§1) Cell Surface ELISA for VCAM-1/ICAM-1
(§2) Proliferating human umbilical vein endothelial cells (HUVEC) or human aortic smooth muscle cells (HASMC) from Clonetics (San Diego, Calif.) were plated onto 96-well plates in 100 μL medium per well at 20,000 cells per cm^2. The cultures were maintained in growth medium (EGM or SMGM2, Clonetics, San Diego, Calif.) for two days prior to addition of cytokines or drugs. Cytokines plus or minus compounds were added for 20 to 24 hours prior to analysis for adhesion molecule levels. Tumor necrosis factor (Genzyme, Cambridge, Mass.) was added to cultures at 500-1000 units/mL. Interleukin-4 (GIBCO-BRL, Gaithersburg, Md.) was added to cultures at 100-200 pg/mL. (Additions were made by transferring 100 μL of cytokines plus compounds serially diluted on a separate 96-well plate into the plates containing cells. The medium on the cultures was not exchanged prior to addition of effectors). The culture medium was removed, and the monolayers were washed twice with Hanks buffered saline solution (HBSS) at room temperature. The primary antibody (anti-human VCAM-1 from Upstate Biotechnology, Inc., Lake Placid, N.Y. or anti-human ICAM-1 from Immunotech, Inc., Westbrook, Me.) was added to each well (1 μg/mL in HBSS plus 5% newborn calf serum, GIBCO-BRL, Gaithersburg, Md.) and incubated at 37° C. for 1 hr. The wells were washed twice with HBSS, then 100 μL of a 1/1000 dilution of goat anti-mouse IgG conjugated to horse radish peroxidase (BioRad, Hercules, Calif.) in HBSS plus 5% newborn calf serum was added to each well and incubated for 1 hr at 37° C. The wells were washed three times with HBSS, then 100 μL of TMB substrate (BioRad, Hercules, Calif.) was added to each well. The reaction was stopped after blue color developed by addition of 50 μL of 1N H2 SO4. Absorbance is measured at 450 nm with a plate reader. IC50 values were determined from curves of absorbance values obtained from serial dilutions of compounds (dissolved in dimethyl sulfoxide).
(§3) The IC50 value is defined as the drug concentration that inhibits the cytokine-induced adhesion molecule expression by 50%. Maximal values for adhesion molecule expression in cytokine-induced cultures was subtracted from the basal level of adhesion molecule expression (minus cytokines) in the cultures to determine the level of induction. […] Each drug concentration was tested in quadruplicate wells. Single point tests of compounds at 50 μM were assayed as described for IC50 determinations, except that the data represent the level of inhibition without correction for basal expression. (Basal adhesion molecule expression was 10-20% of the total induced expression).
(§4) In these experiments, the cells were coincubated with tumor necrosis factor-alpha along with the indicated compounds about 20 to 24 hr before assaying cell surface adhesion molecule expression.
(§5) Table 3 illustrates the activity of selected compounds when eight serial dilutions of drug were tested against cytokine induction of VCAM-1 expression in both vascular endothelial and smooth muscle cells. Subtraction of basal VCAM-1 expression was also used in the calculation of IC50 values. Each compound was also tested in a similar manner for ICAM-1 inhibition. No inhibition of ICAM-1 was detected (up to 100 μM) in vascular smooth muscle cells.

VCAM-1 [2] = experiment: Cell surface ELISA for VCAM-1 in human umbilical vein endothelial cells (HUVEC), cytokine-induced (tumor necrosis factor-alpha); format: cell-based; conditions: for inhibition at 50 µM: read-out: VCAM-1 (% inh. 50 μM); for IC50: eight serial dilutions, basal expression subtracted
Description: as §1, §2, §3, §4, §5

VCAM-1 [3] = experiment: Cell surface ELISA for VCAM-1 in human aortic smooth muscle cells (HASMC), cytokine-induced (interleukin-4); format: cell-based; conditions: for inhibition at 50 µM: HASMC; for IC50: HSMC, eight serial dilutions, basal expression subtracted
Description: as §1, §2, §3
Table 1 summarizes the ability of various compounds of this invention to inhibit VCAM-1 using human aortic smooth muscle cells (HASMC). In these experiments, the cells were coincubated with interleukin-4 and the compounds listed about 20 hr before assaying cell surface VCAM-1 levels. Each column represents a separate experiment.
as §5

VCAM-1 [4] = experiment: In vivo inhibition of LPS-induced VCAM-1 upregulation in rabbit aorta (immunohistochemistry); parameters: species or system New Zealand white rabbits; conditions: 0.4% in diet for three weeks; LPS 40 μg/animal i.v.; aorta 4 hr after LPS; when adequately accumulated
Excerpt: FIG. 1 illustrates the effect of 2,6-di-t-butyl-4-[(dimethylphenylsilyl)methylthio]phenol (MDL 29,353) on LPS induced VCAM-1 expression in rabbit aorta in vivo. Data are expressed as the percent of the aortic surface endothelium expressing VCAM-1 as measured by immunostaining with an anti-rabbit VCAM-1 antibody.
In Vivo Inhibition of VCAM-1 Upregulation by MDL 29,353 in Rabbit Aorta
New Zealand white rabbits were fed a diet of chow plus or minus 0.4% MDL 29,353 for three weeks prior to challenge with lipopolysaccharide (LPS, 40 μg/animal, i.v. ear vein). The aorta was removed from each animal 4 hr after LPS injection and rinsed briefly in phosphate buffered saline. VCAM-1 was immunohistochemistry was performed by incubating the tissues with RB1/9 antibody (mouse anti-rabbit VCAM-1) at 4° C. overnight. The bound RB1/9 was detected using a biotinylated goat anti-mouse secondary antibody (60 min, RT). VCAM-1 staining was accomplished by addition of streptavidin-alkaline phosphatase conjugate (30 min, RT) followed by an incubation with BT Red (Biotec, 10, RT). Images of the stained tissues were captured using an image analysis system for determination of the percentages of the aortic endothelium showing immunoreactivity with anti-VCAM antibody.

VCAM-1 [5] = conditions: vascular endothelial cells; cited from earlier work
ICAM-1 [6] = conditions: vascular endothelial cells; cited from earlier work
[7] = system: human umbilical vein endothelial cells (HUVEC); experiment: Loss of HUVEC adherence to the tissue culture surface (microscope); format: cell-based; conditions: vascular endothelial cells; 50 and 100 μM; observed with a microscope
[8] = 20 h, read-out: HSMC-2 (% inh. 50 μM) VCAM-1
[9] = 20 h, read-out: HSMC-3 (% inh. 50 μM) VCAM-1
[10] = 50 μM, TNF-alpha, 20 to 24 hr, average of two runs
[11] = 50 μM, TNF-alpha, 20 to 24 hr, average of three runs
[12] = HSMC-1 experiment, 50 μM, interleukin-4, about 20 hr, no correction for basal expression, read-out: HSMC-1 (% inh. 50 μM) VCAM-1
[13] = HSMC-2 experiment, 50 μM, interleukin-4, about 20 hr, no correction for basal expression, read-out: HSMC-2 (% inh. 50 μM) VCAM-1
[14] = HSMC-3 experiment, 50 μM, interleukin-4, about 20 hr, no correction for basal expression, read-out: HSMC-3 (% inh. 50 μM) VCAM-1
[15] = average of HSMC-1, HSMC-2, HSMC-3, 50 μM, read-out: VCAM-1 (Avg.) % inh.
[16] = 20 h, read-out: HSMC-1 (% inh. 50 μM) VCAM-1

Row | Structure (SMILES) | inhibition at 50 µM (ICAM-1 [1]) | inhibition at 50 µM (VCAM-1 [2]) | inhibition at 50 µM (VCAM-1 [3]; [8]) | inhibition at 50 µM (VCAM-1 [3]; [9]) | inhibition at 50 µM (VCAM-1 [3]; read-out: VCAM-1 (Avg.) % inh.) | inhibition at 50 µM (VCAM-1 [2]; [11]) | IC50 (VCAM-1 [2]) | inhibition at 50 µM (VCAM-1 [3]; [12]) | inhibition at 50 µM (VCAM-1 [3]; [13]) | inhibition at 50 µM (VCAM-1 [3]; [14]) | inhibition at 50 µM (VCAM-1 [3]; [15]) | IC50 (VCAM-1 [3]) | inhibition at 50 µM (VCAM-1 [3]; [16]) | also measured
1 | Cc1cc(OC[Si](C)(C)c2ccccc2)cc(C)c1O [MDL 103,719, 2,6-Dimethyl-4-[(dimethylphenylsilyl)methyloxy]phenol] | 77% | 17% | 49% | 42% | 45.5% | – | – | – | – | – | – | – | – | –
2 | CC(C)(C)c1cc(SC[Si](C)(C)c2ccccc2)cc(C(C)(C)C)c1O [MDL 29,353, 2,6-Di-t-butyl-4-[(dimethylphenylsilyl)methylthio]phenol] | – | – | – | – | – | 8.7% | 19 µM | 58% | 60% | 46% | 54.7% | 10 µM | – | inhibition at 50 µM (ICAM-1 [1]; [10]): 6%; Inhibition of LPS induced VCAM-1 expression in rabbit aortic endothelium (FIG. 1) (VCAM-1 [4]): can inhibit the LPS induced level of VCAM-1 expression in rabbit aortic endothelium
3 | CC(C)(C)c1cc(SC[Si](C)(C)C)cc(C(C)(C)C)c1O [MDL 28,235, 2,6-Di-t-butyl-4-[(trimethylsilyl)methylthio]phenol] | – | 4.3% | 18% | 42% | 22.6% | – | – | – | – | – | – | – | 7.8% | –
4 | Cc1cc(SC[Si](C)(C)c2ccccc2)cc(C(C)(C)C)c1O [MDL 104,518, 2-t-butyl-6-methyl-4-[(dimethylphenylsilyl)methylthio]phenol] | 78% | – | 47% | 26% | 25.8% | – | – | – | – | – | – | – | 4.4% | –
5 | CC(C)(C)c1cc(OC[Si](C)(C)c2ccc(Cl)cc2)cc(C(C)(C)C)c1O [MDL 104,280, 2,6-Di-t-butyl-4-[(4-chlorophenyldimethylsilyl)methyloxy]phenol] | 22% | 27.3% | 63% | 44% | 53.9% | – | – | – | – | – | – | – | 54.7% | –
6 | CC(=O)N[C@@H](CS)C(=O)O [N-acetylcysteine] | – | – | – | – | – | – | – | – | – | – | – | – | – | Inhibition of cytokine-induced expression of VCAM-1 (VCAM-1 [5]): inhibit cytokine-induced expression of VCAM-1; Inhibition of cytokine-induced expression of ICAM-1 (ICAM-1 [6]): not ICAM-1
7 | CC(C)(C)c1cc(OC[Si](C)(C)c2ccccc2)cc(C(C)(C)C)c1O [MDL 103,902, 2,6-Di-t-butyl-4-[(dimethylphenylsilyl)methyloxy]phenol] | – | – | – | – | – | 25.3% | 11 µM | 49% | 60% | 43% | 50.7% | 5 µM | – | Cell adherence to the tissue culture surface [7]: loss of cell adherence; Inhibition of ICAM-1 expression in vascular endothelial cells (ICAM-1 [1]; 50 and 100 μM, could be accounted for by loss of cell adherence): significant inhibition of ICAM-1 expression; inhibition at 50 µM (ICAM-1 [1]; [10]): 39%
8 | COc1ccc([Si](C)(C)COc2cc(C(C)(C)C)c(O)c(C(C)(C)C)c2)cc1 [MDL 105,074, 2,6-Di-t-butyl-4-[(dimethyl-4-methoxyphenylsilyl)methyloxy]phenol] | – | – | – | – | – | 20% | 12 µM | 28.3% | 52% | 47% | 42.4% | 40 µM | – | –
9 | S=C(S)N1CCCC1 [pyrollidine dithiocarbamate] | – | – | – | – | – | – | – | – | – | – | – | – | – | Inhibition of cytokine-induced expression of VCAM-1 (VCAM-1 [5]): inhibit cytokine-induced expression of VCAM-1; Inhibition of cytokine-induced expression of ICAM-1 (ICAM-1 [6]): not ICAM-1
